Assay results published in ChEMBL document CHEMBL4028874, “Methodology for Monobactam Diversification: Syntheses and Studies of 4-Thiomethyl Substituted β-Lactams with Activity against Gram-Negative Bacteria, Including Carbapenemase Producing Acinetobacter baumannii” (2017).
In brackets after ≈: the same amount, converted by molar mass. Activity calls are given as the source filed them. No cut-off for these calls is given here.

Assays:
[1] = test system: Acinetobacter baumannii; assay: Antibacterial activity against cephalosporinase producing Acinetobacter baumannii ATCC 17978-PNT-320 after 18 hrs by broth microdilution method; type: functional
[2] = test system: Acinetobacter baumannii; assay: Antibacterial activity against Acinetobacter baumannii ATCC BAA 1797 after 18 hrs by broth microdilution method; type: functional; conditions: ATCC BAA 1797, 18 h
[3] = test system: Pseudomonas aeruginosa; assay: Antibacterial activity against Pseudomonas aeruginosa 01 after 18 hrs by broth microdilution method; type: functional; conditions: Pseudomonas aeruginosa, 01, 18 h
[4] = test system: Acinetobacter baumannii; assay: Antibacterial activity against clinical isolates of Acinetobacter baumannii ARC 5079 in presence of tazobactam after 18 hrs by broth microdilution method; type: functional; conditions: ARC 5079, 18 h
[5] = test system: Citrobacter freundii; assay: Antibacterial activity against Citrobacter freundii ATCC 29063 after 18 hrs by broth microdilution method; type: functional; conditions: ATCC 29063, 18 h
[6] = test system: Acinetobacter baumannii; assay: Antibacterial activity against clinical isolates of Acinetobacter baumannii ISR14-005 after 18 hrs by broth microdilution method; type: functional
[7] = test system: Staphylococcus aureus; assay: Antibacterial activity against Staphylococcus aureus SG 511 after 18 hrs by broth microdilution method; type: functional; conditions: SG 511, 18 h
[8] = test system: Pseudomonas aeruginosa; assay: Antibacterial activity against Pseudomonas aeruginosa ARC 3506 after 18 hrs by broth microdilution method; type: functional; conditions: ARC 3506, 18 h
[9] = test system: Acinetobacter baumannii; assay: Antibacterial activity against clinical isolates of Acinetobacter baumannii ARC 5079 after 18 hrs by broth microdilution method; type: functional
[10] = test system: Pseudomonas aeruginosa; assay: Antibacterial activity against Pseudomonas aeruginosa ARC 3502 after 18 hrs by broth microdilution method; type: functional; conditions: ARC 3502, 18 h
[11] = test system: Acinetobacter baumannii; assay: Antibacterial activity against Acinetobacter baumannii ATCC BAA 1800 after 18 hrs by broth microdilution method; type: functional; conditions: ATCC BAA 1800, 18 h
[12] = test system: Pseudomonas aeruginosa; assay: Antibacterial activity against Pseudomonas aeruginosa ARC 3502 after 18 hrs in presence of tazobactam by broth microdilution method; type: functional; conditions: ARC 3502, 18 h
[13] = test system: Proteus mirabilis; assay: Antibacterial activity against Proteus mirabilis X235 after 18 hrs by broth microdilution method; type: functional; conditions: X235, 18 h
[14] = test system: Klebsiella aerogenes; assay: Antibacterial activity against Enterobacter aerogenes X816 after 18 hrs by broth microdilution method; type: functional; conditions: X816, 18 h
[15] = test system: Pseudomonas aeruginosa; assay: Antibacterial activity against clinical isolates of Pseudomonas aeruginosa ISR-14-004 after 18 hrs by broth microdilution method; type: functional
[16] = test system: Pseudomonas aeruginosa; assay: Antibacterial activity against Pseudomonas aeruginosa ARC 3506 after 18 hrs in presence of tazobactam by broth microdilution method; type: functional; conditions: ARC 3506, 18 h
[17] = test system: Pseudomonas aeruginosa; assay: Antibacterial activity against Pseudomonas aeruginosa KW799/wt after 18 hrs by broth microdilution method; type: functional
[18] = test system: Burkholderia dolosa; assay: Antibacterial activity against Burkholderia dolosa AU0018 after 18 hrs by broth microdilution method; type: functional; conditions: AU0018, 18 h
[19] = test system: Pseudomonas aeruginosa; assay: Antibacterial activity against clinical isolates of Pseudomonas aeruginosa ISR-14-003 after 18 hrs by broth microdilution method; type: functional
[20] = test system: Pseudomonas aeruginosa; assay: Antibacterial activity against clinical isolates of Pseudomonas aeruginosa ISR-14-003 after 18 hrs in presence of tazobactam by broth microdilution method; type: functional; conditions: ISR-14-003, 18 h
[21] = test system: Escherichia coli; assay: Antibacterial activity against Escherichia coli DC0 after 18 hrs by broth microdilution method; type: functional; conditions: DC0, 18 h
[22] = test system: Acinetobacter baumannii; assay: Antibacterial activity against carbapenemase producing Acinetobacter baumannii ATCC 17978-PNT-165 after 18 hrs by broth microdilution method; type: functional; conditions: ATCC 17978-PNT-165, 18 h
[23] = test system: Acinetobacter baumannii; assay: Antibacterial activity against clinical isolates of Acinetobacter baumannii ISR14-005 after 18 hrs in presence of tazobactam by broth microdilution method; type: functional; conditions: ISR14-005, 18 h
[24] = test system: Acinetobacter baumannii; assay: Antibacterial activity against Acinetobacter baumannii ATCC 17961 after 18 hrs by broth microdilution method; type: functional; conditions: ATCC 17961, 18 h
[25] = test system: Pseudomonas aeruginosa; assay: Antibacterial activity against clinical isolates of Pseudomonas aeruginosa ISR-14-004 after 18 hrs in presence of tazobactam by broth microdilution method; type: functional; conditions: ISR-14-004, 18 h
[26] = test system: Salmonella typhimurium; assay: Antibacterial activity against Salmonella typhimurium ATCC 13311 after 18 hrs by broth microdilution method; type: functional, Salmonella enterica subsp. enterica serovar Typhimurium; conditions: Salmonella enterica, ATCC 13311, 18 h
[27] = test system: Acinetobacter baumannii; assay: Antibacterial activity against Acinetobacter baumannii ATCC BAA 1793 after 18 hrs by broth microdilution method; type: functional
[28] = test system: Acinetobacter baumannii; assay: Antibacterial activity against Acinetobacter baumannii ATCC BAA 1800 at 10 ug/ml after 18 hrs by broth microdilution method; type: functional
[29] = test system: Acinetobacter baumannii; assay: Antibacterial activity against Acinetobacter baumannii ATCC BAA 1793 at 10 ug/ml after 18 hrs by broth microdilution method; type: functional

| Molecule | MIC ([1]; ATCC 17978-PNT-320, 18 h) | MIC [2] [µM] | MIC [3] [µM] | MIC [5] [µM] | MIC ([6]; ISR14-005, 18 h) | MIC [7] [µM] | MIC [8] | MIC ([9]; ARC 5079, 18 h) | MIC [10] | MIC [11] [µM] | MIC [13] [µM] | MIC [14] [µM] | MIC ([15]; ISR-14-004, 18 h) | MIC [17] [µM] | MIC [18] [µM] | MIC ([19]; ISR-14-003, 18 h) | MIC [21] [µM] | MIC [22] [µM] | MIC [24] [µM] | MIC [26] [µM] | also measured |
| --- | --- | --- | --- | --- | --- | --- | --- | --- | --- | --- | --- | --- | --- | --- | --- | --- | --- | --- | --- | --- | --- |
| POLYMYXIN B | – | – | – | – | – | – | – | – | – | – | – | – | – | – | – | – | – | – | – | – | MIC [1]: < 0.025 µM; MIC [6]: < 0.025 µM; MIC [9]: < 0.1 µM; MIC [15]: 0.05 µM; MIC [19]: 0.1 µM; MIC [27]: < 0.025 µM |
| C[C@H]1[C@H](NC(=O)/C(=N\OC(C)(C)C(=O)O)c2csc(N)n2)C(=O)N1S(=O)(=O)O [AZTREONAM] | – | – | – | 0.1 (≈ 0.0435 µg/mL) | – | > 50 | 12.5 to 50 µM | – | – | 12.5 to 25 (≈ 5.44 to 10.9 µg/mL) | 0.05 (≈ 0.0218 µg/mL) | 0.2 (≈ 0.0871 µg/mL) | – | 1.6 (≈ 0.697 µg/mL) | > 50 | – | 0.1 (≈ 0.0435 µg/mL) | 12.5 (≈ 5.44 µg/mL) | – | 0.1 (≈ 0.0435 µg/mL) | MIC ([27]; ATCC BAA 1793, 18 h): 12.5 to 25 µM (≈ 5.44 to 10.9 µg/mL) |
| C[C@]1(Cn2ccnn2)[C@H](C(=O)O)N2C(=O)C[C@H]2S1(=O)=O [TAZOBACTAM] | < 10 µg/mL | – | – | – | > 20 µg/mL | – | > 10 µg/mL | > 10 µg/mL | > 10 µg/mL | – | – | – | > 20 µg/mL | – | > 50 | > 20 µg/mL | – | – | – | – | Activity [28]: inactive; Activity [29]: inactive |
| COC(=O)CSC[C@H]1[C@H](NC(=O)Cc2ccccc2)C(=O)N1S(=O)(=O)O | > 50 µM | > 50 | > 50 | > 50 | > 50 µM | > 50 | > 50 µM | > 50 µM | > 50 µM | > 50 | > 50 | > 50 | > 50 µM | > 50 | > 50 | > 50 µM | > 50 | > 50 | > 50 | > 50 | MIC ([27]; ATCC BAA 1793, 18 h): > 50 µM |
| CC(C)(O/N=C(\C(=O)N[C@@H]1C(=O)N(S(=O)(=O)O)[C@H]1CSCCN)c1cnc(N)s1)C(=O)O | > 50 µM | 50 (≈ 25.5 µg/mL) | > 50 | 3 (≈ 1.53 µg/mL) | > 50 µM | > 50 | > 50 µM | > 50 µM | ≥ 50 µM | ≥ 50 | 3 (≈ 1.53 µg/mL) | 9.4 (≈ 4.8 µg/mL) | > 50 µM | > 50 | > 50 | > 50 µM | 6 (≈ 3.06 µg/mL) | 50 (≈ 25.5 µg/mL) | > 50 | 4.5 (≈ 2.3 µg/mL) | MIC [4]: > 50 µM; MIC [16]: > 50 µM; MIC ([27]; ATCC BAA 1793, 18 h): ≥ 50 µM |

More lines, main results first:

| MIC ([1]; ATCC 17978-PNT-320, 18 h) | MIC [2] [µM] | MIC [3] [µM] | MIC [5] [µM] | MIC ([6]; ISR14-005, 18 h) | MIC [7] [µM] | MIC [8] | MIC ([9]; ARC 5079, 18 h) | MIC [10] | MIC [11] [µM] | MIC [13] [µM] | MIC [14] [µM] | MIC ([15]; ISR-14-004, 18 h) | MIC [17] [µM] | MIC [18] [µM] | MIC ([19]; ISR-14-003, 18 h) | MIC [21] [µM] | MIC [22] [µM] | MIC [24] [µM] | MIC [26] [µM] | Molecule | also measured |
| --- | --- | --- | --- | --- | --- | --- | --- | --- | --- | --- | --- | --- | --- | --- | --- | --- | --- | --- | --- | --- | --- |
| 0.4 µM | 0.4 (≈ 0.364 µg/mL) | 0.4 (≈ 0.364 µg/mL) | 0.05 (≈ 0.0455 µg/mL) | > 50 µM | > 50 | > 50 µM | 1.6 to 25 µM | > 50 µM | 0.1 to 0.4 (≈ 0.0911 to 0.364 µg/mL) | < 0.025 | 0.075 (≈ 0.0683 µg/mL) | 6 µM | 0.4 (≈ 0.364 µg/mL) | > 50 | 1.6 µM | < 0.025 | 0.4 (≈ 0.364 µg/mL) | 0.2 (≈ 0.182 µg/mL) | 0.025 (≈ 0.0228 µg/mL) | CC(C)(O/N=C(\C(=O)N[C@@H]1C(=O)N(S(=O)(=O)O)[C@H]1CSCCNC(=O)CN(CCCCNC(=O)c1cccc(O)c1O)C(=O)c1cccc(O)c1O)c1cnc(N)s1)C(=O)O | MIC [4]: 1.6 to 50 µM; MIC [12]: 1.6 µM; MIC [16]: 1.6 to 25 µM; MIC [20]: 1.6 µM; MIC [23]: 25 µM; MIC [25]: 3 µM; MIC ([27]; ATCC BAA 1793, 18 h): 0.1 to 0.4 µM (≈ 0.0911 to 0.364 µg/mL) |
| – | > 50 | > 50 | 12.5 (≈ 5.48 µg/mL) | > 50 µM | > 50 | > 50 µM | – | > 50 µM | – | 12.5 (≈ 5.48 µg/mL) | 0.2 (≈ 0.0877 µg/mL) | > 50 µM | > 50 | – | > 50 µM | 25 (≈ 11 µg/mL) | 50 (≈ 21.9 µg/mL) | 50 (≈ 21.9 µg/mL) | 12.5 (≈ 5.48 µg/mL) | CO/N=C(\C(=O)N[C@@H]1C(=O)N(S(=O)(=O)O)[C@H]1CSCCN)c1cnc(N)s1 | – |
